Test in all cases: growth of human tumour cells (NCI), 48 h
In experiment [1] the test system is SK-MEL-2 melanoma.
Experiment [2] relates to SR leukemia.
Experiment [3] has as its system SF-295 CNS.
In experiment [4] the test system is RPMI-8226 leukemia.
Experiment [5] concerns NCI/ADR-RES ovarian.
The test system of experiment [6] is A498 renal.
Experiment [7] deals with CCRF-CEM leukemia.
Experiment [8] relates to SF-539 CNS.
For experiment [9], the system named is KM12 colon.
The subject of experiment [10] is NCI-H226 lung.
For experiment [11], the system named is A549 NSCLC.
In experiment [12] the test system is SK-OV-3 ovarian.
In experiment [13] the test system is U251 CNS.
For experiment [14], the system named is EKVX NSCLC.
The test system of experiment [15] is NCI-H460 lung.
For experiment [16], the system named is SN12C renal.
In experiment [17] the test system is HCC-2998 colon.

Where “and” joins values, the source holds several entries; their conditions need not be identical. Identical values can stand only once.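 All cell lines were grown in 96-well plates and treated with compound for 48 hours. TGI: concentration producing complete growth inhibition.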

For `Cc1ccc(CC2(OCCN(C)C)CCC(C(C)(C)C)CC2)cc1` (stereo not given), the TGI in experiment [1] is 4.96 µM and 5.35 µM; in experiment [2], 4.67 µM and 5.58 µM; in experiment [3], 9.86 µM and 9.5 µM; in experiment [4], 4 µM and 4.96 µM; in [5], 21.5 µM and 22.3 µM; in experiment [6] it was 28.6 µM and 27.1 µM. For the same compound, the TGI in experiment [7] is 7.46 µM and 7.98 µM; in experiment [8], 4.55 µM and 8.81 µM; in experiment [9], 13 µM and 10.4 µM; in experiment [10] it was 15.6 µM and 15.4 µM; in [11] it was 14 µM and 20.4 µM; in [12], 20.9 µM and 23.6 µM. Moreover, the TGI in [13] was 6.39 µM and 10.2 µM; in experiment [14], 21.6 µM and 28 µM; in experiment [15] it was 3.71 µM and 3.57 µM; in experiment [16] it was 17.6 µM and 17.8 µM; in [17], 4.26 µM and 4.73 µM.
As for `COc1ccc(N2C(=O)c3cccnc3S2(=O)=O)cc1`, the TGI in experiment [1], in [2], in experiment [3], in experiment [4], in experiment [5] and in experiment [6] was greater than 100 µM each time. Further, the TGI in [7], in experiment [8], in [9], in [10], in [11] and in experiment [12] was greater than 100 µM throughout. For the same compound, the TGI in [13], in [14], in [15], in experiment [16] and in experiment [17] was greater than 100 µM each time.
As for `CCO/C=N/C1=C(C#N)C(c2ccc(Cl)cc2)c2c(-c3ccccc3)nn(-c3ccccc3)c2O1` (stereo not given), the TGI in experiment [1] is 34.8 µM; in experiment [2], greater than 100 µM; in experiment [3], 32.2 µM; in experiment [4], greater than 100 µM; in [5], greater than 85.4 µM; in experiment [6], 19.9 µM. The TGI in [7] was greater than 100 µM; in experiment [8], greater than 26.2 µM; in experiment [9] it was 18.7 µM; in experiment [10], 46.9 µM; in experiment [11], 21.5 µM; in experiment [12] it was 48.2 µM. The TGI is 16.8 µM in experiment [13]; greater than 31.6 µM in [14]; 46 µM in experiment [15]; greater than 100 µM in experiment [16]; greater than 38.9 µM in [17].
With `COc1ccc([C@H]2C=C(c3cc(F)c(Cl)cc3Cl)NC(=S)N2)cc1`, the TGI was 58.4 µM in experiment [1]; greater than 100 µM in experiment [2]; greater than 100 µM in experiment [3]; 76 µM in experiment [4]; greater than 100 µM in experiment [5]; 79.2 µM in [6]. In addition, the TGI in experiment [7], in experiment [8], in [9], in [10], in experiment [11] and in experiment [12] was greater than 100 µM each time. Moreover, the TGI was 95.8 µM in experiment [13]; greater than 100 µM in experiment [14]; 54.3 µM in experiment [15]; 57.1 µM in [16]; 70.5 µM in [17].
Turning to `O=C(NCCNCCNCCNC(=O)c1cc(-c2ccccc2)nc2ccccc12)c1cc(-c2ccccc2)nc2ccccc12`, the TGI in [1] amounted to 3.08 µM; in experiment [2] it was 5.01 µM; in experiment [3] it was 3.09 µM; in experiment [4], 6.51 µM; in experiment [5] it was 29.3 µM; in [6], 9.68 µM. In addition, the TGI in experiment [7] is greater than 20.5 µM; in experiment [8] it was 3.85 µM; in [9] it was 5.54 µM; in [10], 7.38 µM; in experiment [11], 18.6 µM; in [12] it was 11.1 µM. Besides, the TGI came to 3.3 µM in experiment [13]; 18 µM in experiment [14]; 3.4 µM in [15]; 11.2 µM in experiment [16]; 3.1 µM in [17].
Consider `Cc1ccc(C(CC(=O)C(C)(C)CN2CCCCC2)SCCS(=O)(=O)O)cc1` (stereo not given), for which the TGI in experiment [1] amounted to 40.1 µM; in [2], 45.3 µM; in experiment [3], 73.4 µM; in [4], 48.1 µM; in [5], 84.9 µM; in experiment [6], 48.7 µM. Further, the TGI is 45.9 µM in experiment [7]; 49.1 µM in experiment [8]; greater than 100 µM in experiment [9]; 70.5 µM in [10]; greater than 100 µM in experiment [11]; 91 µM in [12]. In addition, the TGI in experiment [13] was 81.8 µM; in [14] it was 66.5 µM; in [15] it was greater than 100 µM; in experiment [16], 94.8 µM; in experiment [17], 83.3 µM.
For the compound `CC(C)(C)CC(C)(C)N=C(N)NO`, the TGI in experiment [1] was greater than 100 µM; in experiment [2], greater than 100 µM; in experiment [3], greater than 100 µM; in experiment [4] it was greater than 100 µM; in experiment [5] it was greater than 100 µM; in experiment [6] it was 97.6 µM. In addition, the TGI in experiment [7] was greater than 100 µM; in experiment [8], greater than 100 µM; in [9], greater than 100 µM; in experiment [10], greater than 100 µM; in experiment [11] it was greater than 100 µM; in experiment [12] it was 99.1 µM. Moreover, the TGI in experiment [13], in [14], in experiment [15], in experiment [16] and in experiment [17] was greater than 100 µM throughout.
Turning to `COc1ccc2oc(=O)c3c(c2c1C)OC(C)(C)C=C3`, the TGI in [1], in [2], in [3], in experiment [4], in experiment [5] and in experiment [6] was greater than 100 µM each time. For the same compound, the TGI in experiment [7], in experiment [8], in experiment [9], in experiment [10], in experiment [11] and in experiment [12] was greater than 100 µM in each case. For the same compound, the TGI in experiment [13], in experiment [14], in [15], in experiment [16] and in [17] was greater than 100 µM throughout.
Regarding `COc1ccc2oc(=O)c(CC=C(C)C)c(O)c2c1C`, the TGI in experiment [1], in [2], in experiment [3], in experiment [4], in experiment [5] and in experiment [6] was greater than 100 µM throughout. The TGI in [7], in experiment [8], in experiment [9], in experiment [10], in experiment [11] and in experiment [12] was greater than 100 µM throughout. Also, the TGI in [13], in experiment [14], in [15], in experiment [16] and in [17] was greater than 100 µM in each case.
As to `Cn1c(Sc2ccc(-c3cccnc3)n2C)ccc1-c1cccnc1`, the TGI in experiment [1] was found to be 30.1 µM; in experiment [2], 9.79 µM; in experiment [3], 38.6 µM; in [4], 23.4 µM; in [5], 71.3 µM; in experiment [6] it was 47.6 µM. In addition, the TGI in experiment [7] turned out to be 4.53 µM; in experiment [8], 41.8 µM; in experiment [9] it was 33.6 µM; in experiment [10] it was 51.1 µM; in experiment [11] it was 80.9 µM; in [12] it was 60.9 µM. Also, the TGI was 26.9 µM in experiment [13]; greater than 56.8 µM in experiment [14]; 31.1 µM in [15]; 39.6 µM in [16]; 34.7 µM in [17].

Source of the values: PubChem BioAssay (NCI).
